We go through nine compounds from ChEMBL document CHEMBL3046531, “Analgesic study of novel pyrimidine derivatives linked with coumarin moiety” (2012).

The structures appear in SMILES notation.

Holding throughout (assay type): functional
Experiment [1] has as its system Mus musculus. The experiment can be described thus: Analgesic activity in Mus musculus Swiss albino (mouse) assessed as protection against acetic acid-induced writhing response at 20 mg/kg, po administered 30 min before acetic acid challenge measured at 2 hr after challenge. In general terms: In writhing tests, fewer writhes than in controls are read as antinociception.

Experiment [2] deals with Mus musculus. The experiment can be described thus: Analgesic activity in Mus musculus Swiss albino (mouse) assessed as protection against acetic acid-induced writhing response at 20 mg/kg, po administered 30 min before acetic acid challenge measured at 1 hr after challenge.
The test system of experiment [3] is Mus musculus. The experiment can be described thus: Analgesic activity in Mus musculus Swiss albino (mouse) assessed as protection against acetic acid-induced writhing response at 20 mg/kg, po administered 30 min before acetic acid challenge measured at 0.5 hr after challenge.

As to `O=C([O-])Cc1ccccc1Nc1c(Cl)cccc1Cl.[Na+]` [DICLOFENAC SODIUM], the Activity was determined as 93.35% in the experiment with Mus musculus [1], 96.76% in the experiment on Mus musculus [2] and 91.13% with Mus musculus [3].

For the compound `Nc1nc(-c2cccc(Br)c2)cc(-c2cc3ccccc3oc2=O)n1`, the Activity with Mus musculus [1] is given as 31.57%; in the experiment with Mus musculus [2] it was 33.52%; with Mus musculus [3] it was 25.94%.

For the compound `Nc1nc(-c2ccccc2Br)cc(-c2cc3ccccc3oc2=O)n1`, the values for the Activity in the experiment with Mus musculus [1], in the experiment with Mus musculus [2] and with Mus musculus [3] were 27.7%, 30.58% and 23.41%, respectively.

Take `Nc1nc(-c2cccc(Cl)c2)cc(-c2cc3ccccc3oc2=O)n1`: the values for the Activity in the experiment with Mus musculus [1], with Mus musculus [2] and in the experiment with Mus musculus [3] were 56.5%, 60.58% and 52.21%, respectively.

Turning to `COc1ccccc1-c1cc(-c2cc3ccccc3oc2=O)nc(N)n1`, the values for the Activity in the experiment with Mus musculus [1], in the experiment with Mus musculus [2] and in the experiment with Mus musculus [3] were 33.79%, 35.58% and 35.44%, respectively.

In the case of `COc1cccc(-c2cc(-c3cc4ccccc4oc3=O)nc(N)n2)c1`, the Activity is recorded as 49.3% in the experiment with Mus musculus [1], 53.52% with Mus musculus [2] and 46.51% in the experiment with Mus musculus [3].

On to `Nc1nc(-c2ccccc2Cl)cc(-c2cc3ccccc3oc2=O)n1`, for which the Activity came to 11.63% in the experiment on Mus musculus [1], 12.05% in the experiment on Mus musculus [2] and 8.22% in the experiment with Mus musculus [3].

Consider `Nc1nc(-c2ccc(Cl)cc2)cc(-c2cc3ccccc3oc2=O)n1`, for which the Activity in the experiment with Mus musculus [1] is 10.8%; in the experiment on Mus musculus [2], 12.35%; with Mus musculus [3] it was 9.49%.

Take `Nc1nc(-c2ccc(Br)cc2)cc(-c2cc3ccccc3oc2=O)n1`: the Activity is 26.59% in the experiment with Mus musculus [1], 29.41% in the experiment with Mus musculus [2] and 28.16% with Mus musculus [3].
